Experimental data taken from US11180522B2, “Disulfide-linked reversible terminators” (Centrillion Technology Holdings Corporation, priority 2015, dated 2021).

Columns and labels:
Bst polymerase [1] = conditions: "runaway" reaction with Bst polymerase, 100 uM dNTPs, 37° C., before TCEP treatment
Protocol: For reactions with Bst large fragment (NEB), 40 uL of hybridized beads were resuspended in 22.5 uL of reaction mixture (40 mM Tris-HCl pH8.8, 20 mM ammonium sulfate, 20 mM KCl, 0.2% Triton X-100, 2 mM MgSO4, 40 U Bst). Reactions were pre-warmed to 37° C. for one minute before adding 2.5 uL of 1 mM dNTPs (NEB) (for a final concentration of 100 uM). After five minutes at 37° C., reactions were quenched with 40 μL RB. Beads were washed with 40 μL RB and SP_T was eluted with 0.1N NaOH for 10 minutes at room temperature then neutralized with 1.5 uL Tris-HCl pH8.0.
Denaturing PAGE: An equal volume of 2×TBE-Urea Sample Buffer (Novex, Thermo Fisher) was added to samples before heat-denaturation for five minutes at 85° C. 10 μL sample and a 10 bp ladder (TrackIt, Invitrogen) on a 15% TBE-Urea PAGE gel (Novex, Thermo Fisher) in 1×TBE for two hours at 160V. Gels were imaged for fluorescence before staining and again after staining with SYBR Gold (Thermo) on an AlphaImager 3400.

DNA polymerase CENT1 = assay: Primer extension assay with DNA polymerase CENT1; assay type: biochemical; conditions: 2 uM nucleotide, 45° C., one minute, denaturing PAGE
Protocol: (§1) Oligo Preparation: Oligos were purchased from IDT and stored at 500 uM in nuclease-free water: A biotinylated target sequence (Biot_Primer1_Capt, 5′-/5Biosg/[…] TTTCAG-3′ (SEQ ID NO: 1)) and a sequencing primer (SP_T, 5′-[…]-3′ (SEQ ID NO: 2)). 8 nmol of the biotinylated template sequence was conjugated to streptavidin-coated magnetic beads (T1 Dynabeads, Invitrogen) for one hour at room temperature in a solution containing 1M NaCl, 10 mM Tris-HCl pH7.5, 1 mM EDTA. Beads were washed three times with wash buffer at 60° C. (0.64×SSC, 0.016% SDS) to remove unbound primer and stored in 800 μL reaction binding buffer, RB, (1M NaCl, 25 mM Tris-HCl pH7.5, 0.01% TWEEN20) at 4° C. To hybridize the sequencing primer to the template, 100 uL of conjugated beads were incubated with a saturating amount of SP_T (2.5 nmol) in 200 μL RB at 70° C. for five minutes, 55° C. for 15 minutes, then 25° C. for 5 minutes. Hybridized beads were stored in 360 uL RB at room temperature.

Bst polymerase [2] = conditions: incubation with 100 mM TCEP pH9.0, 65° C., 30 minutes
Protocol: Primer extension: For reactions with CENT1 enzyme, the enzyme was boiled for 5 minutes at 95° C. before use. 40 uL of hybridized beads were resuspended in 22.5 uL of reaction mixture (40 mM Tris-HCl pH8.8, 20 mM ammonium sulfate, 20 mM KCl, 0.2% Triton X-100, 2 mM MgSO4, 1.5 ug CENT1). Reactions were pre-warmed to 45° C. for one minute before adding 2.5 uL of 20 uM nucleotide (for a final concentration of 2 uM). After one minute of incorporation, reactions were quenched with 40 μL RB. Beads were washed with 40 μL RB and either resuspended in a new reaction mixture for further incorporation events or SP_T was eluted with 0.1 N NaOH for 10 minutes at room temperature then neutralized with 1.5 uL Tris-HCl pH8.0. For reactions with Bst large fragment (NEB), 40 uL of hybridized beads were resuspended in 22.5 uL of reaction mixture (40 mM Tris-HCl pH8.8, 20 mM ammonium sulfate, 20 mM KCl, 0.2% Triton X-100, 2 mM MgSO4, 40 U Bst). Reactions were pre-warmed to 37° C. for one minute before adding 2.5 uL of 1 mM dNTPs (NEB) (for a final concentration of 100 uM). After five minutes at 37° C., reactions were quenched with 40 μL RB. Beads were washed with 40 μL RB and SP_T was eluted with 0.1N NaOH for 10 minutes at room temperature then neutralized with 1.5 uL Tris-HCl pH8.0.
Cleavage of Reversible Terminators: After incorporation of reversible terminators, beads were resuspended in 100 mM TCEP pH9.0 (Gold Bio) and incubated at 65° C. for 30 minutes before quenching with 100 μL RB. Beads were washed with 40 μL RB and either resuspended in a new reaction mixture for further incorporation events or SP_T was eluted with 0.1N NaOH for 10 minutes at room temperature then neutralized with 1.5 uL Tris-HCl pH8.0.

[3] = test system: enhanced DNA polymerase (EDP); assay: Primer extension assay with enhanced DNA polymerase (EDP); assay type: biochemical; conditions: denaturing PAGE, FIG. 12
Protocol: as §1

Molecule	Blocking of further extension after terminator incorporation (Bst polymerase [1])	Primer extension (incorporation of the terminator into the growing DNA chain) catalyzed by CENT1 (DNA polymerase CENT1)	De-blocking (removal of 3′-azidomethyl cap, extension resumes) (Bst polymerase [2])	Primer extension (incorporation of the terminator) catalyzed by EDP [3]
3′-O-azidomethyl-5-(Alexa530-dithiolinker-carbamate)-dUTP [compound 34]	Blocking of further extension after terminator incorporation is observed	extension was catalyzed	De-blocking was accomplished	
CC(C)(C)OC(=O)NCCSSCCOC(=O)NCC#Cc1cn([C@H]2CC(OCN=[N+]=[N-])[C@@H](COP(=O)(O)OP(=O)(O)OP(=O)(O)O)O2)c(=O)[nH]c1=O (stereo partly drawn) [compound 31]		extension was catalyzed	De-blocking was accomplished	extension was catalyzed
[N-]=[N+]=NCOC1C[C@H](n2cc(C#CCNC(=O)OCCSSCCNC(=O)c3ccc(-c4c5ccc(=O)cc-5oc5cc(O)ccc45)c(C(=O)O)c3)c(=O)[nH]c2=O)O[C@@H]1COP(=O)(O)OP(=O)(O)OP(=O)(O)O (stereo partly drawn) [compound 33, 3′-O-azidomethyl-5-(Fluorescein-dithiolinker-cabamate)-2′-deoxyuridinetriphosphate]	Blocking of further extension after terminator incorporation is observed	extension was catalyzed	De-blocking was accomplished	
